Data published in PubChem BioAssay AID312 (DTP/NCI, 2004).
Where “and” joins values, the source holds several entries; their conditions need not be identical. Equal entries are not always repeated. Inconclusive results and toxic doses are left out. The calls were made as follows: active = survival T/C of 150% or more; inactive = T/C below 125% in these data.

System: BDF1 mice, C1498 leukemia ip, median survival T/C
Experiment: NCI In Vivo Anticancer Drug Screen. Data for tumor model C1498 Myeloid Leukemia (intraperitoneal) in B6D2F1 (BDF1) mice
Details: endpoint: median survival time, higher = longer survival
Procedure: The antitumor activity of compounds was measured in mice bearing transplantable tumors. Survival or tumor size were measured and the results are expressed as the measurement made in the treated group (T) divided by the measurement made in the vehicle treated control group (C). The tumor model used in this assay is C1498 Myeloid Leukemia (intraperitoneal) in B6D2F1 (BDF1) mice

[1] = dose: 25.0 mg/kg/injection, schedule: Q01DX010 (ip), vehicle: saline
[2] = dose: 50.0 mg/kg/injection, schedule: Q01DX010 (ip), vehicle: saline
[3] = dose: 100.0 mg/kg/injection, schedule: Q01DX010 (ip), vehicle: saline
[4] = dose: 200.0 mg/kg/injection, schedule: Q01DX010 (ip), vehicle: saline
[5] = dose: 20.0 mg/kg/injection, schedule: Q01DX010 (ip), vehicle: saline

Measured: T/C

CO[C@@H]1[C@@H](OC2OC(C)C(OC3CC(C)(O)C(OC(=O)CC(C)C)C(C)O3)C(N(C)C)C2O)[C@@H](CC=O)C[C@@H](C)C(=O)/C=C/C2O[C@H]2C[C@@H](C)OC(=O)C[C@H]1OC(C)=O (stereo partly drawn)
inactive: dose: 37.5 mg/kg/injection, schedule: Q01DX010 (ip), vehicle: saline 109 % of control and 91 % of control | dose: 75.0 mg/kg/injection, schedule: Q01DX010 (ip), vehicle: saline 100 % of control and 91 % of control | dose: 150.0 mg/kg/injection, schedule: Q01DX010 (ip), vehicle: saline 95 % of control and 90 % of control | dose: 300.0 mg/kg/injection, schedule: Q01DX010 (ip), vehicle: saline 91 % of control and 90 % of control

C#CCN(C)Cc1ccccc1
inactive: [1] 104 % of control | [2] 100 % of control and 90 % of control | [3] 90 % of control | [4] 100 % of control and 90 % of control

Cn1c(N)nc2nc[nH]c2c1=S
inactive: dose: 10.0 mg/kg/injection, schedule: Q01DX010 (ip), vehicle: saline 100 % of control | [5] 104 % of control | dose: 40.0 mg/kg/injection, schedule: Q01DX010 (ip), vehicle: saline 109 % of control | dose: 80.0 mg/kg/injection, schedule: Q01DX010 (ip), vehicle: saline 109 % of control

C[C@H]1C(=O)O[C@@H]2CCN3CC=C(COC(=O)[C@](C)(O)[C@@]1(C)O)[C@H]23
inactive: dose: 3.13 mg/kg/injection, schedule: Q01DX010 (ip), vehicle: saline 100 % of control and 103 % of control | dose: 6.25 mg/kg/injection, schedule: Q01DX010 (ip), vehicle: saline 100 % of control | dose: 12.5 mg/kg/injection, schedule: Q01DX010 (ip), vehicle: saline 95 % of control and 107 % of control | [1] 95 % of control and 96 % of control

CN(Cc1cnc2nc(N)nc(N)c2n1)c1ccc(C(=O)N[C@@H](CCC(=O)O)C(=O)O)cc1
inactive: dose: 1.5 mg/kg/injection, schedule: Q01DX009 (ip), vehicle: sodium bicarbonate 110 % of control | dose: 2.0 mg/kg/injection, schedule: Q01DX009 (ip), vehicle: sodium bicarbonate 124 % of control

Nc1nc(F)nc2c1ncn2C1OC(CO)C(O)C1O (stereo not drawn)
inactive: dose: 0.5 mg/kg/injection, schedule: Q01DX010 (ip), vehicle: saline 100 % of control | dose: 1.0 mg/kg/injection, schedule: Q01DX010 (ip), vehicle: saline 100 % of control and 105 % of control and 108 % of control | dose: 2.0 mg/kg/injection, schedule: Q01DX010 (ip), vehicle: saline 100 % of control and 105 % of control and 108 % of control | dose: 4.0 mg/kg/injection, schedule: Q01DX010 (ip), vehicle: saline 100 % of control and 108 % of control and 110 % of control

Cc1cc2nc3c(=O)[nH]c(=O)nc-3n(CC(O)C(O)C(O)C(O)CO)c2cc1C (stereo not drawn)
inactive: [1] 100 % of control | [2] 100 % of control | [3] 95 % of control | [4] 91 % of control | dose: 400.0 mg/kg/injection, schedule: Q01DX010 (ip), vehicle: saline 87 % of control

Cc1cc(N(CCCl)CCCl)ccc1N=Nc1ccccc1C(=O)O
inactive: [5] 113 % of control
